According to patent publication US20240336657A1, “G-ALPHA-S PEPTIDE INHIBITORS AND USES THEREOF” (The Regents of the University of California, priority 2021, published 2024):
Positions of bridges follow the written chain, without caps; N, C: chain ends. Non-standard residues stand in square brackets, D forms with d. Residues, ends and D or L forms follow the SMILES beside them.

Assays:
Gαs/Gβγ = molecular target: T1, Gαs/Gβγ (Homo sapiens, UniProt P63092); assay: BRET2 based Gα Gβγ interaction assay in HEK293 cells (β2AR, isoproterenol); format: cell-based; details: pretreated 25 μM, 16 hours, 10 nM isoproterenol
T1 construct: expressed in transfected cells; host or cells: HEK293 cells
Source text: We next tested GD20-F10L in HEK 293 cells overexpressing both β2AR and Gαs/Gβγ. Rluc8 was inserted within a flexible loop region between the αB-αC helices of Gαs (FIG. 23J) and GFP2 was inserted at the N-terminus of Gγ2 to capture Gαβγ heterotrimer interaction. A decrease in the bioluminescence resonance energy transfer (BRET2) signal between labeled G protein subunits can detect Gαβγ dissociation (FIG. 21C) in live cells (Olsen et al., 2020). We examined Gαβγ trimer dissociation elicited by the GPCR agonist at various concentrations of cyclic peptides by monitoring the net BRET2 signal. In cells that were transiently transfected with a Gαs-coupled β2-adrenergic receptor (β2AR), GαsShort_Rluc8, […], and Gγ-GFP2, ISO application stimulated a basal net BRET response. […] This effect was GD20-F10L dose dependent (FIGS. 21D-21E). […] To assess the specificity of GD20-F10L at the G protein level, we tested it against the Gαi/Gβγ interaction. […]
8 hours after plating in 96-well assay plates, media was replaced with 100 μL of cyclic peptide dilutions in DMEM with 1% dialyzed FBS. […] Plates were then read in a TECAN Spark 20 M plate reader with 395 nm (RLuc8-coelenterazine 400a) and 510 nm (GFP2) emission filters, at integration times of 1 s per well. Plates were read serially six times, and measurements from the fourth read were used in all analyses. […]

GppNHp-bound Gαs = GppNHp-bound Gαs (Homo sapiens, UniProt P63092); assay: Bio-layer interferometry (BLI) binding kinetics; set-up: hexahistidine (N, cleaved yes); made in house; host or cells: Escherichia coli BL21(DE3)
Experimental: BLI experiments were performed using an OctetRED384 instrument from ForteBio. All experiments were performed at 25° C. using BLI buffer (10 mM HEPES pH 7.4, 150 mM NaCl, 1 mM MgCl2, 0.05% Tween-20, 0.1% DMSO, 0.2 mM GppNHp or GDP). Cyclic peptides were diluted to a series of concentrations in BLI buffer plus 10 μM Biotin. Assays were conducted in Greiner 384well, black, flat bottom polypropylene plates containing the protein solutions, BLI buffer plus 10 μM Biotin for dissociation, and serial dilutions of cyclic peptides to be tested.
Biotinylated proteins were immobilized on Streptavidin biosensors by dipping sensors into plate wells containing protein solutions at a concentration of 100-150 nM. Protein loading is around 2-3 nm. Sensors loaded with proteins were moved and dipped into wells with BLI buffer plus 10 μM Biotin to block unlabeled Streptavidin. Association-dissociation cycles of compounds were started by moving and dipping sensors to cyclic peptides dilutions and BLI buffer plus 10 μM Biotin wells alternatively. Association and dissociation times were carefully determined to ensure full association and dissociation.
Raw kinetic data collected were processed with the Data Analysis software provided by the manufacturer using single reference subtraction in which buffer-only reference was subtracted (For GN13 analysis). Because GD20 analogs have a low level of background binding, we used a double reference subtraction (buffer-only reference and non-protein-loading reference) method to calculate their kinetics values. The resulting data were analyzed based on a 1:1 binding model from which kon and koff values were obtained and then Kd values were calculated.

T1 sequence (P63092 1-380 isoform P63092-2): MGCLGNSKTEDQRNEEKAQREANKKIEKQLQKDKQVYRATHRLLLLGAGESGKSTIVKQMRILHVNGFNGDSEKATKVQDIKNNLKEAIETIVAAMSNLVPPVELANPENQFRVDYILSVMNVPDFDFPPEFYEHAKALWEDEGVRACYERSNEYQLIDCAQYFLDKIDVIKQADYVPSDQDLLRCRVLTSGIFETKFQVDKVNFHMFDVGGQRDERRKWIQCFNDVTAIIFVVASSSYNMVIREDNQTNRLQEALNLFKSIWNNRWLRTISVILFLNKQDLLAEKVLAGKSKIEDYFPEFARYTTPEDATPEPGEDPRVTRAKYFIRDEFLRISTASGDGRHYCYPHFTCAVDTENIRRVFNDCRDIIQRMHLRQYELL

koff (GppNHp-bound Gαs; GppNHp/Gαs) [s⁻¹]	kon (GppNHp-bound Gαs; GppNHp/Gαs) [M⁻¹ s⁻¹]	Kd (GppNHp-bound Gαs; immobilized GppNHp-bound Gαs) [µM]	SMILES	net BRET2 signal between Gαs and Gγ after isoproterenol (Gαs/Gβγ)
–	–	–	CC[C@H](C)[C@@H]1NC(=O)[C@H](CC(C)C)NC(=O)[C@@H](Cc2ccc(O)cc2)NC(=O)CSC[C@@H](C(=O)NCC(N)=O)NC(=O)[C@@H]2CCCN2C(=O)[C@H](CC(C)C)NC(=O)[C@H](CC(N)=O)NC(=O)[C@H](CC(C)C)NC(=O)[C@H](C)NC(=O)[C@H](Cc2c[nH]c3ccccc23)NC(=O)[C@H](CCC(N)=O)NC(=O)[C@H](CCCNC(=N)N)NC(=O)[C@H](Cc2ccccc2)NC(=O)[C@H]([C@@H](C)O)NC1=O [GD20-F10L] ({CH2CO}-[dY]LITFRQWALNLPCG-NH2; thioether N-14)	induced a greater net BRET2 signal
0.0513	271000	0.19 ± 0.02	CC[C@H](C)[C@@H]1NC(=O)[C@H](C)NC(=O)[C@H](Cc2ccc(O)cc2)NC(=O)[C@H](C(C)C)NC(=O)[C@H](CO)NC(=O)[C@H](CCC(=O)O)NC(=O)[C@H](Cc2ccccc2)NC(=O)[C@@H](Cc2ccc(O)cc2)NC(=O)CSC[C@@H](C(=O)NCC(N)=O)NC(=O)[C@H](CC(C)C)NC(=O)[C@H]([C@@H](C)O)NC(=O)CNC(=O)[C@H](Cc2c[nH]c3ccccc23)NC1=O [GN13] ({CH2CO}-[dY]FESVYAIWGTLCG-NH2; thioether N-13)	–
